Results taken from patent US7786299B2, “Methods for treating diseases or conditions using dihydropteridinone compounds” (Boehringer Ingelheim Pharma GmbH & Co. KG, priority 2003, dated 2010).

Experiments:
H460-VINC = test: Cytotoxicity on H460-VINC cells (Table 1; method not given); format: cell-based; details: H460-VINC of Table 1; unit inferred
HeLaS3 cells = test: Measurement of cytotoxicity on cultivated human tumour cells (AlamarBlue); format: cell-based; details: HeLa in Table 1; unit inferred
Method: The activity of the compounds according to the invention was determined in the cytotoxicity test on cultivated human tumour cells and/or in a FACS analysis, for example on HeLaS3 cells.
Measurement of Cytotoxicity on Cultivated Human Tumour Cells
To measure the cytotoxicity on cultivated human tumour cells, cells of the cervical cancer tumour cell line HeLaS3 (obtained from American Type Culture Collection (ATCC)) in Ham's F12 Medium (Life Technologies) and 10% foetal calf serum (Life Technologies) were cultivated and harvested in the logarithmic growth phase. Then the HeLaS3 cells were placed in 96-well plates (Costar) at a density of 1000 cells per well and incubated overnight in an incubator (at 37° C. and 5% CO2), while on each plate 6 wells were filled only with medium (3 wells as a control of the medium, 3 wells for incubation with reduced AlamarBlue). The active substances were added to the cells in various concentrations (dissolved in DMSO; final concentration: 1%) (in each case as a triple measurement). After 72 hours' incubation, 20 μl of AlamarBlue (AccuMed International) were added to each well, and the cells were incubated for a further 7 hours. As a control, 20 μl of reduced Alamar Blue (AlamarBlue reagent which had been autoclaved for 30 min) were added to 3 wells. After 7 h incubation the colour change of the AlamarBlue reagent in the individual wells was determined in a Perkin Elmer fluorescence spectrophotometer (excitation 530 nm, emission 590 nm, slits 15, integrate time 0.1). The amount of AlamarBlue reagent reacted represents the metabolic activity of the cells. The relative cell activity was calculated as a percentage of the control (HeLa S3 cells without inhibitor) and the active substance concentration which inhibits the cell activity by 50% (IC^50) was obtained. The values were calculated from the average of three individual measurements, correcting for the control value (medium control).

Structure (SMILES) | IC50 (H460-VINC) | IC50 (HeLaS3 cells)
CCC1C(=O)N(C)c2cnc(Nc3ccc(C(=O)NC4CCCN(C)CC4)cc3OC)nc2N1CCC(C)C (mixture of isomers) [Example 172] | 0.772 µM | 0.02 µM
COc1cc(C(=O)NC2CC(C)(C)N(C)C(C)(C)C2)ccc1Nc1ncc2c(n1)N(CCC(C)C)C(C)C(=O)N2C (stereo not drawn) [Example 1] | 0.604 µM | 0.046 µM
COc1cc(C(=O)NC2CCN(C(C)C)CC2)ccc1Nc1ncc2c(n1)N(CCC(C)C)C(C)C(=O)N2C (stereo not drawn) [Example 2] | 0.971 µM | 0.056 µM
CC(C)CCN1c2nc(Nc3ccc(C(=O)NC4CC(C)(C)N(C)C(C)(C)C4)cc3)ncc2N(C)C(=O)C1C (stereo not drawn) [Example 3] |  | 0.061 µM
CCN1CCC(NC(=O)c2ccc(Nc3ncc4c(n3)N(CCC(C)C)C(C)C(=O)N4C)cc2)CC1 (stereo not drawn) [Example 4] |  | 0.098 µM
COc1cc(C(=O)NC2CC(C)(C)N(C)C(C)(C)C2)ccc1Nc1ncc2c(n1)N(CC(C)(C)C)C(C)C(=O)N2C (stereo not drawn) [Example 5] | 0.863 µM | 0.052 µM
CCN1CCC(NC(=O)c2ccc(Nc3ncc4c(n3)N(CC(C)(C)C)C(C)C(=O)N4C)c(OC)c2)CC1 (stereo not drawn) [Example 6] | 0.822 µM | 0.053 µM
COc1cc(C(=O)NC2CCN(C(C)C)CC2)ccc1Nc1ncc2c(n1)N(CC(C)(C)C)C(C)C(=O)N2C (stereo not drawn) [Example 7] | 0.865 µM | 0.084 µM
CC1C(=O)N(C)c2cnc(Nc3ccc(C(=O)NC4CC(C)(C)N(C)C(C)(C)C4)cc3)nc2N1CC(C)(C)C (stereo not drawn) [Example 8] |  | 0.063 µM
COc1cc(C(=O)NC2CCC(N3CCOCC3)CC2)ccc1Nc1ncc2c(n1)N(CCC(C)C)C(C)C(=O)N2C (stereo not drawn) [Example 9] | 0.207 µM | 0.057 µM
CC1C(=O)N(C)c2cnc(Nc3ccc(C(=O)NC4CCN(Cc5ccccc5)CC4)cc3)nc2N1CC(C)(C)C (stereo not drawn) [Example 10] |  | 0.091 µM
CCN1CCC(NC(=O)c2ccc(Nc3ncc4c(n3)N(CC(C)(C)C)C(C)C(=O)N4C)cc2)CC1 (stereo not drawn) [Example 11] | 1.3 µM | 0.086 µM
CC(C)N1CCC(NC(=O)c2ccc(Nc3ncc4c(n3)N(CC(C)(C)C)C(C)C(=O)N4C)cc2)CC1 (stereo not drawn) [Example 12] | 1.07 µM | 0.099 µM
COc1cc(C(=O)NC2CCC(N(C)C)CC2)ccc1Nc1ncc2c(n1)N(C1CCCC1)C(C)C(=O)N2C (stereo not drawn) [Example 13] | 1.32 µM | 0.026 µM
CC1C(=O)N(C)c2cnc(Nc3ccc(C(=O)NC4CCC(N(C)C)CC4)cc3)nc2N1C1CCCC1 (stereo not drawn) [Example 14] | ≥ 3 µM | 0.055 µM
COc1cc(C(=O)NC2CCC(N3CCCC3)CC2)ccc1Nc1ncc2c(n1)N(C1CCCC1)C(C)C(=O)N2C (stereo not drawn) [Example 15] |  | 0.02 µM
COc1cc(C(=O)NC2CCC(N3CCCCC3)CC2)ccc1Nc1ncc2c(n1)N(C1CCCC1)C(C)C(=O)N2C (stereo not drawn) [Example 16] | 0.483 µM | 0.017 µM
CCN1CCC(NC(=O)c2ccc(Nc3ncc4c(n3)N(C3CCCC3)C(C)C(=O)N4C)c(OC)c2)CC1 (stereo not drawn) [Example 17] | 0.73 µM | 0.024 µM
CCN1CCC(NC(=O)c2ccc(Nc3ncc4c(n3)N(C3CCCC3)C(C)C(=O)N4C)cc2)CC1 (stereo not drawn) [Example 18] | 1.76 µM | 0.04 µM
CCC1C(=O)N(C)c2cnc(Nc3ccc(C(=O)NC4CCC(N5CCCC5)CC4)cc3OC)nc2N1C1CCCC1 (stereo not drawn) [Example 19] | 0.747 µM | 0.013 µM

Structure (SMILES) | IC50 (H460-VINC) | IC50 (HeLaS3 cells)
CCN1CCC(NC(=O)c2ccc(Nc3ncc4c(n3)N(C(C)C)C(C)C(=O)N4C)c(OC)c2)CC1 (stereo not drawn) [Example 20] | ≥ 3 µM | 0.083 µM
CCC1C(=O)N(C)c2cnc(Nc3ccc(C(=O)NC4CC(C)(C)N(C)C(C)(C)C4)cc3OC)nc2N1C1CCCC1 (stereo not drawn) [Example 21] | 0.488 µM | 0.009 µM
CCC1C(=O)N(C)c2cnc(Nc3ccc(C(=O)NC4CCN(CC)CC4)cc3OC)nc2N1C1CCCC1 (stereo not drawn) [Example 22] | 0.347 µM | 0.008 µM
CCC1C(=O)N(C)c2cnc(Nc3ccc(C(=O)NC4CCC(N(C)C)CC4)cc3OC)nc2N1C1CCCC1 (stereo not drawn) [Example 23] | 0.679 µM | 0.013 µM
COc1cc(C(=O)NC2CCC(N3CCOCC3)CC2)ccc1Nc1ncc2c(n1)N(C1CCCC1)C(C)C(=O)N2C (stereo not drawn) [Example 24] | 0.277 µM | 0.017 µM
COc1cc(C(=O)NC2CCC(N3CCCCC3)CC2)ccc1Nc1ncc2c(n1)N(C1CCCC1)C(C)C(=O)N2C (stereo not drawn) [Example 25] |  | 0.038 µM
COc1cc(C(=O)N[C@H]2CC[C@H](N3CCCCC3)CC2)ccc1Nc1ncc2c(n1)N(CCC(C)C)[C@H](C)C(=O)N2C [Example 29] |  | 0.049 µM
COc1cc(C(=O)NC2CCC(N3CCCC3)CC2)ccc1Nc1ncc2c(n1)N(CCC(C)C)[C@H](C)C(=O)N2C (stereo partly drawn) [Example 34] |  | 0.055 µM
COc1cc(C(=O)N[C@H]2CC[C@H](N3CCCC3)CC2)ccc1Nc1ncc2c(n1)N(CCC(C)C)[C@H](C)C(=O)N2C [Example 35] |  | 0.088 µM
COc1cc(C(=O)NC2CCC(N3CCCC3)CC2)ccc1Nc1ncc2c(n1)N(C1CCCC1)[C@H](C)C(=O)N2C (stereo partly drawn) [Example 36] |  | 0.021 µM
CCN1CC[C@@H](NC(=O)c2ccc(Nc3ncc4c(n3)N(CCC(C)C)[C@H](C)C(=O)N4C)cc2)C1 [Example 39] |  | 0.075 µM
CCC1C(=O)N(C)c2cnc(Nc3ccc(C(=O)NC4CC5CCC(C4)N5C)cc3)nc2N1C1CCCC1 (stereo not drawn) [Example 47] |  | 0.028 µM
CCN(CC)CCNC(=O)c1ccc(Nc2ncc3c(n2)N(c2ccccc2)C(C)C(=O)N3C)c(OC)c1 (stereo not drawn) [Example 59] |  | 0.095 µM
CC1C(=O)N(C)c2cnc(Nc3ccc(C(=O)NCCN4CCCCC4)cc3)nc2N1C1CCCC1 (stereo not drawn) [Example 70] |  | 0.092 µM
CC[C@@H]1C(=O)N(C)c2cnc(Nc3ccc(C(=O)NCCN4CCCCC4)cc3OC)nc2N1C(C)C [Example 72] |  | 0.05 µM
CC[C@@H]1C(=O)N(C)c2cnc(Nc3ccc(C(=O)NCCN(CC)CC)cc3)nc2N1C(C)C [Example 73] |  | 0.091 µM
CC[C@@H]1C(=O)N(C)c2cnc(Nc3ccc(C(=O)NCCN(CC)CC)cc3OC)nc2N1C(C)C [Example 74] |  | 0.043 µM
CCN(CC)CCCNC(=O)c1ccc(Nc2ncc3c(n2)N(C2CCCC2)[C@H](C)C(=O)N3C)c(OC)c1 [Example 76] |  | 0.068 µM
C[C@@H]1C(=O)N(C)c2cnc(Nc3ccc(C(=O)NC4CCN(C)CC4)cc3)nc2N1C1CCCC1 [Example 79] |  | 0.043 µM
C[C@@H]1C(=O)N(C)c2cnc(Nc3ccc(C(=O)NC4CC5CCC(C4)N5C)cc3)nc2N1C1CCCCC1 (stereo partly drawn) [Example 92] |  | 0.043 µM

Structure (SMILES) | IC50 (H460-VINC) | IC50 (HeLaS3 cells)
CN1CCC(NC(=O)c2ccc(Nc3ncc4c(n3)N(C3CCCC3)[C@H](C3CC3)C(=O)N4C)cc2)CC1 [Example 93] |  | 0.06 µM
Cc1cc(C(=O)NC2CC3CCC(C2)N3C)ccc1Nc1ncc2c(n1)N(C1CCCCC1)[C@H](C)C(=O)N2C (stereo partly drawn) [Example 95] |  | 0.047 µM
CCC1C(=O)N(C)c2cnc(Nc3ccc(C(=O)NCCN4CCCCC4)cc3OC)nc2N1CCC(C)C (stereo not drawn) [Example 148] |  | 0.087 µM
CCC1C(=O)N(C)c2cnc(Nc3ccc(C(=O)NCCN(CC)CC)cc3OC)nc2N1CCC(C)C (stereo not drawn) [Example 149] |  | 0.085 µM
CCC1C(=O)N(C)c2cnc(Nc3ccc(C(=O)NCCN4CCCCC4)cc3)nc2N1CCC(C)C (stereo not drawn) [Example 150] |  | 0.043 µM
CCC1C(=O)N(C)c2cnc(Nc3ccc(C(=O)NCCCN4CCOCC4)cc3OC)nc2N1CCC(C)C (stereo not drawn) [Example 151] |  | 0.043 µM
CC[C@@H]1C(=O)N(C)c2cnc(Nc3ccc(C(=O)NCCCN4CCOCC4)cc3OC)nc2N1CCC(C)C [Example 152] |  | 0.081 µM
CC[C@@H]1C(=O)N(C)c2cnc(Nc3ccc(C(=O)NCCCN4CCOCC4)cc3)nc2N1CCC(C)C [Example 154] |  | 0.097 µM
CC[C@@H]1C(=O)N(C)c2cnc(Nc3ccc(C(=O)NCCCN4CCOCC4)cc3)nc2N1CCC(C)C [Example 155] |  | 0.079 µM
CC[C@@H]1C(=O)N(C)c2cnc(Nc3ccc(C(=O)NCCCN4CCCC4)cc3OC)nc2N1CCC(C)C [Example 157] |  | 0.051 µM
CC[C@@H]1C(=O)N(C)c2cnc(Nc3ccc(C(=O)NCCN(C)C)cc3OC)nc2N1CCC(C)C [Example 159] |  | 0.029 µM
COc1cc(C(=O)NCCN(C(C)C)C(C)C)ccc1Nc1ncc2c(n1)N(CCC(C)C)C(C)(C)C(=O)N2C [Example 161] |  | 0.081 µM
CCC1C(=O)N(C)c2cnc(Nc3ccc(C(=O)NC4CN5CCC4CC5)cc3OC)nc2N1CCC(C)C (stereo not drawn) [Example 163] |  | 0.071 µM
COc1cc(C(=O)NC(C)(C)CN(C)C)ccc1Nc1ncc2c(n1)N(C1CCCC1)[C@H](C)C(=O)N2C [Example 175] | 0.296 µM | 
CC[C@@H]1C(=O)N(C)c2cnc(Nc3ccc(C(=O)NC(C)(C)CN(C)C)cc3OC)nc2N1C(C)C [Example 176] | 0.301 µM | 
CC[C@@H]1C(=O)N(C)c2cnc(Nc3ccc(C(=O)NC(C)(C)CN(C)C)cc3OC)nc2N1C1CCCC1 [Example 177] | 0.082 µM | 
CCC1C(=O)N(C)c2cnc(Nc3ccc(C(=O)NC4CCN(Cc5ccccc5)CC4)cc3OC)nc2N1C1CCCCC1 (stereo not drawn) [Example 180] | 0.147 µM | 
COc1cc(C(=O)NC2CCN(Cc3ccccc3)CC2)ccc1Nc1ncc2c(n1)N(C1CCOCC1)C(C)C(=O)N2C (stereo not drawn) [Example 181] | 0.754 µM | 
